Experimental data: ChEMBL document CHEMBL5523744, “Recent Advances in Targeted Cancer Therapy: Are PDCs the Next Generation of ADCs?” (J Med Chem, 2024)
pIC50: −log10 of the molar value.

System: DNA
Test: Induction of DNA (unknown origin) minor groove alkylation
Format: nucleic-acid assay, Homo sapiens

In the case of CC(C)(C)OC(=O)Nc1ccc(C(=O)Nc2ccc3cc(C(=O)N4C[C@@H](CCl)c5c4cc(O)c4ccccc54)[nH]c3c2)cc1, the pIC50 was 10.40.
